pIC50: −log10 of the molar value.
How the values were obtained:
[1] = molecular target: uACC (Ustilago maydis ACC) (Ustilago maydis, UniProt A0A0D1DYD5); test: [14C]bicarbonate incorporation assay, overall ACC activity; format: biochemical
HepG2 cells = test: Fatty acid synthesis assay, 14C-acetate incorporation into phospholipids; format: cell-based; conditions: Homo sapiens, 24 h, read-out: inhibition of radiolabel incorporation into phospholipids
Text: (§1) The in vivo ACC inhibitory activity of compounds in this invention can be confirmed in cultured cells using standard procedures that are well known to those skilled in the art. For example, since ACC catalyzes the first committed step in fatty acid biosynthesis, the in vivo activity of compounds can be confirmed by measuring their ability to prevent the formation of radiolabeled fatty acids from radiolabeled acetate in cultured human hepatoma cells (HepG2). In addition, since the malonyl-CoA produced by ACC inhibits fatty acid oxidation, the in vivo ACC inhibitory activity of compounds can be further confirmed by measuring the stimulation of fatty acid oxidation in cultured mouse myoblast cells (C2C12).
Fatty acid synthesis assays are performed with slight modifications to published procedures (Beckers et al., Cancer Res, 2007, 67: 8180-8187; Wang, J Lipid Res., 2006, 47:2028-41). Briefly, HepG2 cells are grown in Dulbecco's modified eagles medium containing 10% fetal calf serum in 6-well culture plates. Cells are treated for 24 h with test compounds added as DMSO stock solutions to a final DMSO concentration of 0.5% (v/v). After test compound incubation, ^14C—[2]-acetate is added (3 μCi/6 well plate) and cells are further incubated for 4 hrs. Cells are then harvested in 40% methanol and assayed for total protein. Total lipids are extracted with chloroform:methanol (2:1) and ^14C-radioactivity is quantified in the aqueous and organic phases. Total lipids in the organic phase are separated by thin-layer chromatography (TLC, silica gel 60A) using hexane:ether:acetic acid (90:30:1) as the mobile phase. Radioactivity distribution of lipid classes on TLC plates is quantified by phosphorimaging (Molecular Dynamics Storm 820). Compound 6 inhibited radiolabel incorporation into phospholipids 32% and 14% at 10 μM and 1 μM, respectively, while Compound 2 inhibited radiolabel incorporation into phospholipids 93% and 42% at 10 μM and 1 μM, respectively.

C2C12 cells = test: Fatty acid oxidation assay, [1-14C]palmitate to CO2; format: cell-based, mouse; conditions: compared to untreated controls
Text: as §1
Fatty acid oxidation assays are performed essentially as described (Beckers et al., Cancer Res, 2007, 67: 8180-8187). Briefly, C2C12 cells are plated at 600,000 cells/T25 flask. The next day, media is changed and the DMSO with or without test compound is added to a final concentration of 0.5% (v/v). After 1 h at 37° C. in atmosphere of 5% CO2, freshly made 2 uCi of FA-free bovine serum albumin-[1-^14C] palmitate complex is added to each flask. The flasks are then sealed with a stopper and incubated 6 h at 37° C. after which evolved CO2 is liberated by injection of perchloric acid to final concentration of 5% and captured by incubating the flasks overnight in the presence of filter paper soaked with 5% KOH. The filters are then air-dried and incubated with scintillation cocktail overnight for equilibrium. Radioactivity is quantified by scintillation counting.

uACC (Ustilago maydis ACC), sequence (A0A0D1DYD5 entry or part of it): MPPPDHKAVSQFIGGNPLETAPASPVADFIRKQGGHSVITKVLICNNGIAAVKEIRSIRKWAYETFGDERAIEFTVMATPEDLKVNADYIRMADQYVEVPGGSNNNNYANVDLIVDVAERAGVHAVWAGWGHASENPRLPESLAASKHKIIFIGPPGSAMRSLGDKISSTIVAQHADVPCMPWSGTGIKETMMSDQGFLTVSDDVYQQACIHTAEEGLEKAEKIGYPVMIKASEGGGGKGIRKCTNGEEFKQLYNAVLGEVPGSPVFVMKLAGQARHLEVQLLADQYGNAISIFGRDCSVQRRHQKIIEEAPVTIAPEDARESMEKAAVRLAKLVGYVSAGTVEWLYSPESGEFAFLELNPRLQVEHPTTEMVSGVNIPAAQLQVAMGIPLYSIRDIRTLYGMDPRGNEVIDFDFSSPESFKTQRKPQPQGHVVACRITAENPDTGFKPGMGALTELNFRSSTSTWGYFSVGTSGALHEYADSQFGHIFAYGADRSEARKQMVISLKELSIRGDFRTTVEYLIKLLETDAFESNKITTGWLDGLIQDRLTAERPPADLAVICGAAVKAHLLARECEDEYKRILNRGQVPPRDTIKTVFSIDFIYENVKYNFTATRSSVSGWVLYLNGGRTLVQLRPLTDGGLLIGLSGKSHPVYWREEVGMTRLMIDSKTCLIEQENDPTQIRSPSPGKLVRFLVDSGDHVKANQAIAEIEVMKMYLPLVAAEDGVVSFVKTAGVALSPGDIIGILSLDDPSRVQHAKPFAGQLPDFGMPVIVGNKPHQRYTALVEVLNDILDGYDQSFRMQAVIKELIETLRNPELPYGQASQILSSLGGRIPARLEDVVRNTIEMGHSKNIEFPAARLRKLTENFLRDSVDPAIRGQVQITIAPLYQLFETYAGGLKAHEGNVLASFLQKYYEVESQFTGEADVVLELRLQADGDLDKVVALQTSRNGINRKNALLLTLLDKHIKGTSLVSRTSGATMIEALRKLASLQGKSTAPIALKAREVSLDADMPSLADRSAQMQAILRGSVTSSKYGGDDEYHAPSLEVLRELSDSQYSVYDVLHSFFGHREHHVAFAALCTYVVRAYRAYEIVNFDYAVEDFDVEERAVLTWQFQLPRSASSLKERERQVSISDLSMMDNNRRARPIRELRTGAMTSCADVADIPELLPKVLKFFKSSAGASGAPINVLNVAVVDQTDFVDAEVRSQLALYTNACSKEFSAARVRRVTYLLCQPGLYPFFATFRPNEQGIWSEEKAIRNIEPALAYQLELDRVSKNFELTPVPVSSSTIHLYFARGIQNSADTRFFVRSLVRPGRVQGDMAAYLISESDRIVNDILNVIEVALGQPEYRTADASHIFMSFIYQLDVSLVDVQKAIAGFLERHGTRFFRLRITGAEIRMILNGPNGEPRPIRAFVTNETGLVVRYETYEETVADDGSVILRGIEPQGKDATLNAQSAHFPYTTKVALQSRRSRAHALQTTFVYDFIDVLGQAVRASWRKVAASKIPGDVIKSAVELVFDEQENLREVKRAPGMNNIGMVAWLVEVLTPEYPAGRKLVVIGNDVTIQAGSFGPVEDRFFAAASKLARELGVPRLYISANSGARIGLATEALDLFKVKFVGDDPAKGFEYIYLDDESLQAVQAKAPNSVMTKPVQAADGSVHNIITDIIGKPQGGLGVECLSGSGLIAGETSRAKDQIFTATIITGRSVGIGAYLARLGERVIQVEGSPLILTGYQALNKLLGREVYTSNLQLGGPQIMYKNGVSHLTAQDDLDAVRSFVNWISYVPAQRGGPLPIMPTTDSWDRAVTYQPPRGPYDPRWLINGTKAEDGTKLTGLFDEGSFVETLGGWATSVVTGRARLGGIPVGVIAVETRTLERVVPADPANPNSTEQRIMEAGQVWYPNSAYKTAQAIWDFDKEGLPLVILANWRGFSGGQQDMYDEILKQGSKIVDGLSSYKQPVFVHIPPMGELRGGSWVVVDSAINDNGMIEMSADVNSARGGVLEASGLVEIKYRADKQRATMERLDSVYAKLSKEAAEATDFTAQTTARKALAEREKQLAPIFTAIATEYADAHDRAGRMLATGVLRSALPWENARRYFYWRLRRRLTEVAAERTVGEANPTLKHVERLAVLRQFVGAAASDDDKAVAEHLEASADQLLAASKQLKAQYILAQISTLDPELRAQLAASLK

COc1cc(C(=O)N2CCC3(CC2)NC(=O)c2cc(Br)ccc2O3)nc2c(OC)cccc12 [Compound 2, 6-Bromo-1′-[(4,8-dimethoxyquinoline-2-yl)carbonyl]spiro[2H-1,3-benzoxazine-2,4′-piperidine]-4(3H)-one]
pIC50 [1]: 4.96 | inhibition at 1 µM (HepG2 cells; HepG2, 1 μM): 42% | inhibition at 10 µM (HepG2 cells; HepG2, 10 μM): 93% | stimulation of fatty acid oxidation (C2C12 cells; C2C12, 0.1 μM): 170% | stimulation of fatty acid oxidation (C2C12 cells; C2C12, 1 μM): 320%

Source: patent US8110570B2, “Modulators of acetyl-coenzyme A carboxylase and methods of use thereof” (Cropsolution, Inc., priority 2008, dated 2012)
